From PubChem BioAssay (NCI)
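48-hour exposure; five concentrations; linearly interpolated endpoints. Abbreviation: GI50, concentration required for 50% inhibition of growth. TGI marks complete inhibition of growth.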

Columns and labels:
Assay in all cases: NCI-60 cell line screen, 48 h
A549 NSCLC = tested on: A549 NSCLC
HCC-2998 colon = tested on: HCC-2998 colon
ACHN renal = tested on: ACHN renal
DU-145 prostate = tested on: DU-145 prostate
RPMI-8226 leukemia = tested on: RPMI-8226 leukemia
LOX IMVI melanoma = tested on: LOX IMVI melanoma
PC-3 prostate = tested on: PC-3 prostate
SF-295 CNS = tested on: SF-295 CNS
MDA-MB-231 breast = tested on: MDA-MB-231 breast
SNB-75 CNS = tested on: SNB-75 CNS
NCI-H226 lung = tested on: NCI-H226 lung
HS 578T breast = tested on: HS 578T breast
CAKI-1 renal = tested on: CAKI-1 renal
U251 CNS = tested on: U251 CNS
M14 melanoma = tested on: M14 melanoma
CCRF-CEM leukemia = tested on: CCRF-CEM leukemia
HOP-92 NSCLC = tested on: HOP-92 NSCLC
SW-620 colon = tested on: SW-620 colon
MCF7 breast = tested on: MCF7 breast
SK-MEL-28 melanoma = tested on: SK-MEL-28 melanoma
SK-MEL-5 melanoma = tested on: SK-MEL-5 melanoma
EKVX NSCLC = tested on: EKVX NSCLC
OVCAR-4 ovarian = tested on: OVCAR-4 ovarian
NCI/ADR-RES ovarian = tested on: NCI/ADR-RES ovarian
UO-31 renal = tested on: UO-31 renal
MDA-MB-435 = tested on: MDA-MB-435
NCI-H23 lung = tested on: NCI-H23 lung
NCI-H460 lung = tested on: NCI-H460 lung
MOLT-4 leukemia = tested on: MOLT-4 leukemia
SK-OV-3 ovarian = tested on: SK-OV-3 ovarian
IGROV1 ovarian = tested on: IGROV1 ovarian
MALME-3M melanoma = tested on: MALME-3M melanoma
T-47D breast = tested on: T-47D breast
HCT-15 colon = tested on: HCT-15 colon
SN12C renal = tested on: SN12C renal
HOP-62 NSCLC = tested on: HOP-62 NSCLC
COLO 205 colon = tested on: COLO 205 colon
OVCAR-5 ovarian = tested on: OVCAR-5 ovarian
A498 renal = tested on: A498 renal
HT29 colon = tested on: HT29 colon
NCI-H522 lung = tested on: NCI-H522 lung
TK-10 renal = tested on: TK-10 renal
SNB-19 CNS = tested on: SNB-19 CNS
SF-539 CNS = tested on: SF-539 CNS
KM12 colon = tested on: KM12 colon
UACC-62 melanoma = tested on: UACC-62 melanoma
SF-268 CNS = tested on: SF-268 CNS
HCT-116 colon = tested on: HCT-116 colon
SK-MEL-2 melanoma = tested on: SK-MEL-2 melanoma
HL-60(TB) leukemia = tested on: HL-60(TB) leukemia
OVCAR-3 ovarian = tested on: OVCAR-3 ovarian
786-0 renal = tested on: 786-0 renal
K-562 leukemia = tested on: K-562 leukemia

For `COc1ccc(-n2cc(-c3cc(OC)c(OC)c(OC)c3)nc2SCc2cccc(C#N)c2)cc1OC`, the GI50 (A549 NSCLC) was 82.3 µM, the TGI (A549 NSCLC) was greater than 100 µM and the GI50 (HCC-2998 colon) was greater than 100 µM. For the same compound, the TGI (HCC-2998 colon) was greater than 100 µM, the GI50 (ACHN renal) was greater than 100 µM and the TGI (ACHN renal) was greater than 100 µM. It also gave a GI50 (DU-145 prostate) greater than 100 µM, a TGI (DU-145 prostate) greater than 100 µM and a GI50 (RPMI-8226 leukemia) greater than 100 µM. The TGI (RPMI-8226 leukemia) was greater than 100 µM, the GI50 (LOX IMVI melanoma) was greater than 100 µM and the TGI (LOX IMVI melanoma) was greater than 100 µM. It also gave a GI50 (PC-3 prostate) of 59.8 µM, a TGI (PC-3 prostate) greater than 100 µM and a GI50 (SF-295 CNS) greater than 100 µM. For the same compound, the TGI (SF-295 CNS) was greater than 100 µM, the GI50 (MDA-MB-231 breast) was greater than 100 µM and the TGI (MDA-MB-231 breast) was greater than 100 µM. The GI50 (SNB-75 CNS) was 924 nM, the TGI (SNB-75 CNS) was greater than 100 µM and the GI50 (NCI-H226 lung) was greater than 100 µM. For the same compound, the TGI (NCI-H226 lung) was greater than 100 µM, the GI50 (HS 578T breast) was 62.2 µM and the TGI (HS 578T breast) was greater than 100 µM. It also gave a GI50 (CAKI-1 renal) greater than 100 µM, a TGI (CAKI-1 renal) greater than 100 µM and a GI50 (U251 CNS) greater than 100 µM. For the same compound, the TGI (U251 CNS) was greater than 100 µM, the GI50 (M14 melanoma) was greater than 100 µM and the TGI (M14 melanoma) was greater than 100 µM. It also gave a GI50 (CCRF-CEM leukemia) greater than 100 µM, a TGI (CCRF-CEM leukemia) greater than 100 µM and a GI50 (HOP-92 NSCLC) of 27.8 µM. For the same compound, the TGI (HOP-92 NSCLC) was 78.9 µM, the GI50 (SW-620 colon) was 34 µM and the TGI (SW-620 colon) was greater than 100 µM. For the same compound, the GI50 (MCF7 breast) was 66.2 µM, the TGI (MCF7 breast) was greater than 100 µM and the GI50 (SK-MEL-28 melanoma) was 16.8 µM. It also gave a TGI (SK-MEL-28 melanoma) greater than 100 µM, a GI50 (SK-MEL-5 melanoma) of 71.8 µM and a TGI (SK-MEL-5 melanoma) greater than 100 µM. It also gave a GI50 (EKVX NSCLC) greater than 100 µM, a TGI (EKVX NSCLC) greater than 100 µM and a GI50 (OVCAR-4 ovarian) of 2120 nM. It also gave a TGI (OVCAR-4 ovarian) of 39.6 µM, a GI50 (NCI/ADR-RES ovarian) greater than 100 µM and a TGI (NCI/ADR-RES ovarian) greater than 100 µM. The GI50 (UO-31 renal) was greater than 100 µM, the TGI (UO-31 renal) was greater than 100 µM and the GI50 (MDA-MB-435) was 90.5 µM. The TGI (MDA-MB-435) was greater than 100 µM, the GI50 (NCI-H23 lung) was greater than 100 µM and the TGI (NCI-H23 lung) was greater than 100 µM. For the same compound, the GI50 (NCI-H460 lung) was greater than 100 µM, the TGI (NCI-H460 lung) was greater than 100 µM and the GI50 (MOLT-4 leukemia) was 51.7 µM. For the same compound, the TGI (MOLT-4 leukemia) was greater than 100 µM, the GI50 (SK-OV-3 ovarian) was greater than 100 µM and the TGI (SK-OV-3 ovarian) was greater than 100 µM. The GI50 (IGROV1 ovarian) was greater than 100 µM, the TGI (IGROV1 ovarian) was greater than 100 µM and the GI50 (MALME-3M melanoma) was greater than 100 µM. The TGI (MALME-3M melanoma) was greater than 100 µM, the GI50 (T-47D breast) was greater than 100 µM and the TGI (T-47D breast) was greater than 100 µM. For the same compound, the GI50 (HCT-15 colon) was greater than 100 µM, the TGI (HCT-15 colon) was greater than 100 µM and the GI50 (SN12C renal) was greater than 100 µM. The TGI (SN12C renal) was greater than 100 µM, the GI50 (HOP-62 NSCLC) was greater than 100 µM and the TGI (HOP-62 NSCLC) was greater than 100 µM. It also gave a GI50 (COLO 205 colon) greater than 100 µM, a TGI (COLO 205 colon) greater than 100 µM and a GI50 (OVCAR-5 ovarian) greater than 100 µM. The TGI (OVCAR-5 ovarian) was greater than 100 µM, the GI50 (A498 renal) was greater than 100 µM and the TGI (A498 renal) was greater than 100 µM. For the same compound, the GI50 (HT29 colon) was 14.1 µM, the TGI (HT29 colon) was greater than 100 µM and the GI50 (NCI-H522 lung) was 90 µM. The TGI (NCI-H522 lung) was greater than 100 µM, the GI50 (TK-10 renal) was greater than 100 µM and the TGI (TK-10 renal) was greater than 100 µM. For the same compound, the GI50 (SNB-19 CNS) was greater than 100 µM, the TGI (SNB-19 CNS) was greater than 100 µM and the GI50 (SF-539 CNS) was 90.3 µM. It also gave a TGI (SF-539 CNS) greater than 100 µM, a GI50 (KM12 colon) greater than 100 µM and a TGI (KM12 colon) greater than 100 µM. The GI50 (UACC-62 melanoma) was greater than 100 µM, the TGI (UACC-62 melanoma) was greater than 100 µM and the GI50 (SF-268 CNS) was 95.8 µM. It also gave a TGI (SF-268 CNS) greater than 100 µM, a GI50 (HCT-116 colon) of 46 µM and a TGI (HCT-116 colon) greater than 100 µM. It also gave a GI50 (SK-MEL-2 melanoma) greater than 100 µM, a TGI (SK-MEL-2 melanoma) greater than 100 µM and a GI50 (HL-60(TB) leukemia) greater than 100 µM. For the same compound, the TGI (HL-60(TB) leukemia) was greater than 100 µM, the GI50 (OVCAR-3 ovarian) was 65 µM and the TGI (OVCAR-3 ovarian) was greater than 100 µM. The GI50 (786-0 renal) was greater than 100 µM, the TGI (786-0 renal) was greater than 100 µM and the GI50 (K-562 leukemia) was 56.9 µM. It also gave a TGI (K-562 leukemia) greater than 100 µM.
